# Data from patent publication US8691851B2, “Lanthanide metal complexes useful in treating cancer” (National University of Singapore, priority 2009, dated 2014).
# What was measured:
# PPARγ [1] = target: T1, PPARγ (Homo sapiens, UniProt P37231); experiment: 3×PPRE luciferase reporter, PPARγ activation in breast cancer cells; assay type: cell-based; set-up: endogenous in cells; host or cells: MDA-MB-231, T47D (breast cancer); conditions: 0 to 20 μM, 18 hours
# T1 sequence (P37231 1-505): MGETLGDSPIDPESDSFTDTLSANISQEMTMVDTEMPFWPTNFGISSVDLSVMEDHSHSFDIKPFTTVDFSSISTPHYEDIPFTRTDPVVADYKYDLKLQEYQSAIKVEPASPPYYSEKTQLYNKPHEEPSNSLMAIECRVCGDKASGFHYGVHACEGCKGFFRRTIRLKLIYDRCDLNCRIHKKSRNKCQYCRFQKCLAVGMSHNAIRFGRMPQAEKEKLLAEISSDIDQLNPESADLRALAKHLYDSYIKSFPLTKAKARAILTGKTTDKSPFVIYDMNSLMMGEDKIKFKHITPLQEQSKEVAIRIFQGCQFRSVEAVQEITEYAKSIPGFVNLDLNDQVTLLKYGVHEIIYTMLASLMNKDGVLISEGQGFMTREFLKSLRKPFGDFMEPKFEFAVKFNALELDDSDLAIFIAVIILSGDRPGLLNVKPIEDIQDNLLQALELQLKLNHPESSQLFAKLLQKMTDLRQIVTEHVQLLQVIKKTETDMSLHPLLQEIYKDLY
# Excerpt: To determine if C19H24N3O5S5Pr activation of PPARγ is dependent on expression of PPARγ in breast cancer cells, breast cancer cells MDA-MB-231 and T47D were transiently co-transfected with a 3×PPRE luciferase plasmid and renilla plasmid for transfection efficiency.
# [2] = system: SHEP-1 and MDA-MB-231 cancer cells; experiment: Morphological changes of cancer cells; assay type: cell-based; conditions: SHEP-1 5 μM, MDA-MB-231 10 μM, compound alone
# [3] = target: T2, phosphorylation-defective mutant of PPARγ (GFP-PPARg S82A) (Mus musculus, UniProt P37238, S112A); experiment: 3×PPRE luciferase reporter with phosphorylation-defective mutant PPARγ; assay type: cell-based; conditions: SHSY5Y cells, 10 uM, 18 hours
# T2 construct: expressed in transfected cells; host or cells: SHSY5Y neuroblastoma cells
# T2 sequence (P37238 1-475 isoform P37238-2 S82A): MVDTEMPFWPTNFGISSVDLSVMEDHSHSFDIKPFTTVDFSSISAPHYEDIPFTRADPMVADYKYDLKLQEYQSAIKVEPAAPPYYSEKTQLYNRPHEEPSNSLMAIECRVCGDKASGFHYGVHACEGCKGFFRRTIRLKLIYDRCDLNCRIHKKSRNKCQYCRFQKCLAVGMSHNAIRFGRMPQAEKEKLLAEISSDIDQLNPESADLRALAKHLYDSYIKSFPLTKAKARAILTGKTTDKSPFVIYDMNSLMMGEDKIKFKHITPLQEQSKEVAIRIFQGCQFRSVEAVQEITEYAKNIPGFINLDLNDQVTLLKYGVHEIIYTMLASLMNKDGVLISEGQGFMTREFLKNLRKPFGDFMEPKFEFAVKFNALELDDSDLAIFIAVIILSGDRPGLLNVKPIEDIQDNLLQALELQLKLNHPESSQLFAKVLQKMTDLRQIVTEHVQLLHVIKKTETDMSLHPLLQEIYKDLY
# Description: SHSY5Y neuroblastoma cells were transiently co-transfected with either a plasmid encoding wild type PPARγ or a phosphorylation-defective mutant of PPARγ (GFP-PPARg S82A), 3×PPRE luciferase plasmid and plasmid encoding renilla for transfection efficiency. Forty eight hours following transfection, cells were exposed to 10 uM of C19H24N3O5S5Pr for 18 hours.
# [4] = system: MDA-MB-231 breast cancer cells; conditions: high PPARγ expressing cells, 24 hours
# Description: To detect breast cancer cell death via cell viability assay, the mitochondrial activity, as an index of cell viability, was measured using the MTT method (Mosmann, T. J Immunol Methods, 1983; 65: 55-63). Briefly, cells were treated in triplicates in 96-well plate. After completion of the experimental period, 20 μl of MTT reagent (5 mg/ml) was added per well of culture (containing 100 μl treatment media). The reaction was allowed to proceed for 4 to 6 h at 37° C. SDS (10%) was then added (200 μl/well) overnight and the absorption at 595 nm measured.
# caspases = conditions: cancer cells
# PTEN, RhoB, MnSOD = conditions: HCT-116 tumors, 100 μg or 200 μg per mouse, 21 days of treatment
# Description: HCT-116 colorectal tumor cells were grafted onto nude mice. Tumor-bearing mice were then treated with solvent control or different concentrations of (100 μg, 200 μg) C19H24N3O5S5Pr. After 21 days of treatment, the mice were sacrificed, after which tumors were harvested and proteins extracted for Western Blot analysis.
# [5] = system: HCT-116 colorectal tumor cells
# Description: HCT-116 colorectal tumor cells were grafted subcutaneously onto nude mice. Tumor-bearing mice were then treated with solvent control (water) or different concentrations of (100 μg, 200 μg) C19H24N3O5S5Pr on day 1, day 5, day 9, day 12, and day 15. Tumor volumes (mm^3) were measured on day 1, day 5, day 8, day 9, day 12, day 14 and day 16. Tumor volumes in treated mice were compared with those of control mice.
# PARP = conditions: SHEP-1 cells, 5 μM and 10 μM, 24 hrs
# PPARγ [6] = target: T1, PPARγ; assay type: cell-based; set-up: endogenous in cells; host or cells: SHSY5Y, SHEP1 / SHEP-1 (neuroblastoma); conditions: 18 hours
# Description: To determine if C19H24N3O5S5Pr activates PPARγ, SHSY5Y and SHEP1 neuroblastoma cells were transiently co-transfected with a 3×PPRE luciferase plasmid and renilla plasmid for transfection efficiency. Forty eight hours following transfection, the cells were exposed to increased concentrations (0 to 10 μM) of 15d-PGJ2 and C19H24N3O5S5Pr for 18 hours. The fold increase in luciferase activity correlates with the PPARγ activity of the cell. PPARγ activity is determined by calculating the RLU/renilla/μg total protein.
# To assess if C19H24N3O5S5Pr activation of PPARγ is dependent on expression of PPARγ neuroblastoma cells, neuroblastoma cells SHEP1 and SHSY5Y were transiently co-transfected with a 3×PPRE luciferase plasmid and renilla plasmid for transfection efficiency. Forty eight hours following transfection, cells were exposed to increased concentrations (0 to 20 μM) of C19H24N3O5S5Pr for 18 hours. PPARγ activity was calculated as luciferase RLU/renilla/μg total protein.
structure (smiles),measurement,setting,value
"CS(C)=O.CS(C)=O.[O-][n+]1ccccc1[S-].[O-][n+]1ccccc1[S-].[O-][n+]1ccccc1[S-].[Pr+3] [C19H24N3O5S5Pr, praseodymium (2-mercaptopyridine N-oxide)(dimethylsulfoxide)]","PPARγ activation, MDA-MB-231 versus T47D cells",PPARγ [1],"activates PPARγ better in MDA-MB-231 cells, than in T47D cells"
same,cell morphology,[2],rounded up and also lower in cell density
same,activation of phosphorylation-defective mutant PPARγ versus wild type,[3],significant activation of phosphorylation-defective mutant PPARγ
same,cell viability (MTT),[4],inhibits growth
same,caspase activation,caspases,does not activate caspases
same,"PTEN, RhoB and MnSOD protein expression in tumors","PTEN, RhoB, MnSOD",regulated
same,tumor size compared to control mice,"[5]; 100 μg or 200 μg on day 1, 5, 9, 12 and 15, measured to day 16",did not show a substantial increase in tumor size
same,tumor growth suppression/inhibition versus control mice,[5]; 200 μg,at least 3 fold
same,"tumor activity suppressed/inhibited, 200 μg versus 100 μg",[5]; dosage increased from 100 μg to 200 μg,at least 2 fold
same,PARP cleavage (80 kDa fragment),PARP,PARP cleavage
same,"PPARγ activation, SHEP1 versus SHSY5Y cells",PPARγ [6]; 0 to 20 μM,"activates PPARγ better in SHEP1 cells, than in SHSY5Y cells"
same,PPARγ activation (luciferase RLU/renilla/μg total protein),"PPARγ [6]; SHSY5Y and SHEP1 cells in 10% serum, 0 to 10 μM",significant activation of PPARγ
